In ChEMBL document CHEMBL3232788, “1-(2-Hydroxy-2-methyl-3-phenoxypropanoyl)indoline-4-carbonitrile derivatives as potent and tissue selective androgen receptor modulators” (J Med Chem, 2014):
Calls of active or inactive are those of the source. No cut-off for these calls is given here.

What was measured:
Androgen receptor [1] = biological target: T1, Androgen receptor (Homo sapiens, UniProt P10275); test: Agonist activity at human AR expressed in CV1 cells after 17 hrs by luciferase reporter gene assay; assay type: cell-based, CV-1
T1 sequence (P10275 whole entry): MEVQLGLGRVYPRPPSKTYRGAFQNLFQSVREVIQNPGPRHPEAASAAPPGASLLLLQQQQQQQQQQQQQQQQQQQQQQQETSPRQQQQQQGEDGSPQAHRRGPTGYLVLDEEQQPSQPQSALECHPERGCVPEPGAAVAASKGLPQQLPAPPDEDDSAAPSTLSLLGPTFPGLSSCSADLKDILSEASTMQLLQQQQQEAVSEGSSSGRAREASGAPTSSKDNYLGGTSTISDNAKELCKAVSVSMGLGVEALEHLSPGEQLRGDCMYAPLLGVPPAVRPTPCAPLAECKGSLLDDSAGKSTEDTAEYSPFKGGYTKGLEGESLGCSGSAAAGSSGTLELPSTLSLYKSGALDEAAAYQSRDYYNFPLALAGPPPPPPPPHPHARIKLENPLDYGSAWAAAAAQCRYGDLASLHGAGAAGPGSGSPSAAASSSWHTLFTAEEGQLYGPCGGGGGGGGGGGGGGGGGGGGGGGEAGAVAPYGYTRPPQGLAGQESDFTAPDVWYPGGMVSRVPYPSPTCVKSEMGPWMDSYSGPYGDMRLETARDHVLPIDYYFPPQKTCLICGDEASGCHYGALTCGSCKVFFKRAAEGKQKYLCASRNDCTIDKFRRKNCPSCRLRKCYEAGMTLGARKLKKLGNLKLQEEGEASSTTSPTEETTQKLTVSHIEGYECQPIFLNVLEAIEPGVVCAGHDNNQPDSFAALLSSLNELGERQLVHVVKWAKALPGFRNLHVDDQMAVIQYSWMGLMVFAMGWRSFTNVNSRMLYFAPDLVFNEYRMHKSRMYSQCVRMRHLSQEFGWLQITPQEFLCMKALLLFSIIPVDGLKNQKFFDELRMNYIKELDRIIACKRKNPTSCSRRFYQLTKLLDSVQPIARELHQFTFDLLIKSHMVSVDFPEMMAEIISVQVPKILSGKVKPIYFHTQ

Androgen receptor [2] = biological target: T1, Androgen receptor; test: Binding affinity to human AR NTD (1 to 561 aa) expressed in CV1 cells coexpressing human AR-LBD (644-919 aa) assessed as N/C-termini interaction by androgenic assay; assay type: cell-based, CV-1
Androgen receptor [3] = biological target: T1, Androgen receptor; test: Displacement of [3H]mibolerone from full length human AR expressed in COS cells after 3.5 hrs by liquid scintillation counting; assay type: cell-based
Rattus norvegicus [4] = test: Increase in levator ani muscle weight in orchidectomized Sprague-Dawley rat at 1 mg/kg, sc qd for 4 days relative to vehicle-treated control; assay type: functional, organism-based; set-up: dose 1 mg/kg
Rattus norvegicus [5] = test: Increase in prostate tissue weight in orchidectomized Sprague-Dawley rat at 1 mg/kg, sc qd for 4 days relative to vehicle-treated control; assay type: ADME, organism-based, Prostate gland; set-up: dose 1 mg/kg, route subcutaneous; conditions: in vivo, 96 h
Rattus norvegicus [6] = test: Increase in seminal vesicle weight in orchidectomized Sprague-Dawley rat at 1 mg/kg, sc qd for 4 days relative to vehicle-treated control; assay type: ADME, organism-based; set-up: dose 1 mg/kg, route subcutaneous; conditions: in vivo, 96 h

| SMILES | EC50 (Androgen receptor [1]) | EC50 (Androgen receptor [2]) | IC50 (Androgen receptor [3]) | Activity (Rattus norvegicus [4]) | Activity (Rattus norvegicus [5]) | Activity (Rattus norvegicus [6]) |
| --- | --- | --- | --- | --- | --- | --- |
| COc1ccc(OC[C@](C)(O)C(=O)N2CCc3c(C#N)cccc32)c(F)c1 | 2.9 nM | > 10000 nM | 427 nM | – | – | – |
| C[C@](O)(COc1cccc(F)c1)C(=O)N1CCc2c(C#N)cccc21 | 37.4 nM | 1530 nM | 34.2 nM | – | – | – |
| CCC(=O)O[C@H]1CC[C@H]2[C@@H]3CCC4=CC(=O)CC[C@]4(C)[C@H]3CC[C@]12C [TESTOSTERONE PROPIONATE] | – | – | – | Active | Toxic | Toxic |
| C[C@](O)(COc1ccccc1C#N)C(=O)N1CCc2c(C#N)cccc21 | 0.15 nM | 0.77 nM | 14.3 nM | – | – | – |
| C[C@](O)(COc1ccc(-c2cocn2)cc1)C(=O)N1CCc2c(C#N)cccc21 | 7.2 nM | > 10000 nM | 179 nM | – | – | – |
| C[C@](O)(COc1ccc(Br)cc1F)C(=O)N1CCc2c(C#N)cccc21 | 0.11 nM | 0.93 nM | 36.8 nM | – | – | – |
| C[C@](O)(COc1ccccc1C(F)(F)F)C(=O)N1CCc2c(C#N)cccc21 | 1.7 nM | 372 nM | 60.9 nM | – | – | – |
| C[C@](O)(COc1ccccc1F)C(=O)N1CCc2c(C#N)cccc21 | 14.8 nM | > 10000 nM | 10.1 nM | – | – | – |
| COc1ccc(OC[C@](C)(O)C(=O)N2CCc3c(C#N)cccc32)cc1 | 8.6 nM | 624 nM | 146 nM | – | – | – |
| C[C@](O)(COc1ccc(Cl)cc1F)C(=O)N1CCc2c(C#N)cccc21 | 0.28 nM | 0.85 nM | 5 nM | – | – | – |
| C[C@](O)(COc1ccc(C(F)(F)F)cc1)C(=O)N1CCc2c(C#N)cccc21 | 1.8 nM | > 10000 nM | 33.1 nM | – | – | – |
| COc1cc(Cl)ccc1OC[C@](C)(O)C(=O)N1CCc2c(C#N)cccc21 | 17.1 nM | > 10000 nM | 366 nM | – | – | – |
| C[C@](O)(COc1cccc(Cl)c1)C(=O)N1CCc2c(C#N)cccc21 | 275 nM | > 10000 nM | 107 nM | – | – | – |
| C[C@](O)(COc1ccc(F)cc1C#N)C(=O)N1CCc2c(C#N)cccc21 | 0.074 nM | 0.74 nM | 9.1 nM | – | – | – |
| C[C@](O)(COc1ccc(C#N)cc1Br)C(=O)N1CCc2c(C#N)cccc21 | 0.06 nM | 0.41 nM | 4.8 nM | – | – | – |
| C[C@](O)(COc1ccc(Cl)cc1Cl)C(=O)N1CCc2c(C#N)cccc21 | 0.25 nM | 1.4 nM | 9.1 nM | – | – | – |
| COc1ccc(OC[C@](C)(O)C(=O)N2CCc3c(C#N)cccc32)c(Cl)c1 | 0.61 nM | 54.1 nM | 3.5 nM | – | – | – |
| Cc1cc(F)ccc1OC[C@](C)(O)C(=O)N1CCc2c(C#N)cccc21 | 1.1 nM | 72.2 nM | 10.7 nM | – | – | – |
| C[C@](O)(COc1ccc(Br)cc1)C(=O)N1CCc2c(C#N)cccc21 | 0.34 nM | 7.6 nM | 2.4 nM | – | – | – |
| C[C@](O)(COc1ccc(F)cc1Br)C(=O)N1CCc2c(C#N)cccc21 | 0.4 nM | 39.5 nM | 11.4 nM | – | – | – |
| C[C@](O)(COc1ccccc1)C(=O)N1CCc2c(C#N)cccc21 | 689 nM | > 10000 nM | 99.5 nM | – | – | – |
| C[C@](O)(COc1ccc(C#N)cc1)C(=O)N1CCc2c(C#N)cccc21 | 1.8 nM | 71.8 nM | 16.4 nM | – | – | – |
| C[C@](O)(COc1ccccc1Cl)C(=O)N1CCc2c(C#N)cccc21 | 6.1 nM | 4820 nM | 56.3 nM | – | – | – |
| C[C@](O)(COc1ccc(Cl)cc1)C(=O)N1CCc2c(C#N)cccc21 | 3.4 nM | 172 nM | 36.5 nM | – | – | – |
| COc1cc(C#N)ccc1OC[C@](C)(O)C(=O)N1CCc2c(C#N)cccc21 | 7.6 nM | 2120 nM | 16.1 nM | – | – | – |
| C[C@](O)(COc1ccc(C#N)cc1F)C(=O)N1CCc2c(C#N)cccc21 | 0.039 nM | 0.14 nM | 3.2 nM | – | – | – |
| COC(=O)c1ccc(OC[C@](C)(O)C(=O)N2CCc3c(C#N)cccc32)cc1 | 6.8 nM | > 10000 nM | 133 nM | – | – | – |
